Values of other authors as cited in patent US7429390B2, “Stable pharmaceutical compositions, processes for making the same and methods of their use” (priority 2007, dated 2008).
Like-named read-outs stand apart in the source and are kept apart here.

Compound: CNC(=C[N+](=O)[O-])NCCSCc1ccc(CN(C)C)o1 [compound of Formula I, N-[2-[[[5-(dimethylamino)methyl-2-furanyl]methyl]thio]ethyl]-N′-methyl-2-nitro-1,1-ethenediamine]
- time to symptomatic relief (GERD, after starting therapy with 150 mg b.i.d.): ≤ 24 h
- time to symptomatic relief of heartburn (endoscopically diagnosed erosive esophagitis, therapy initiation with 150 mg b.i.d.): ≤ 24 h
- time in which most patients heal (short-term treatment of active duodenal ulcer): ≤ 4 weeks
- time in which most patients heal (short-term treatment of active, benign gastric ulcer): ≤ 6 weeks
